Experimental data: ChEMBL document CHEMBL4507295 (2021)

Assays:
[1] = molecular target: 5-hydroxytryptamine receptor 7 (Homo sapiens, UniProt P34969); test: GPCRScan assay: inhibition of 5-HT7A; set-up: radioligand conc. used [nm] 5.0 – 6.0, parental cells Stable HEK
[2] = molecular target: ATP-sensitive inward rectifier potassium channel 11 (Cricetulus griseus) (UniProt A0A3L7HHE1); test: Inhibition of Potassium Channel [KATP] at 10 µM in the Eurofins-Panlabs radioligand binding assay (Eurofins_assay_265600); settings: Cricetinae; Compound concentration 10.0 uM
Homo sapiens = species: Homo sapiens; test: Inhibition of Phosphodiesterase PDE4 at compound concentration of 10.0 uM in the Eurofins-Panlabs enzyme assay (Eurofins_assay_154000); format: protein assay; set-up: substrate with concentration 1.01 uM [3 H]cAMP + cAMP, incubation time 20 min, incubation temperature 25 C; settings: Compound concentration […]
[3] = molecular target: C-X-C chemokine receptor type 2 (Homo sapiens) (UniProt P25025); test: Inhibition of Chemokine CXCR2 (IL-8RB) at 10 µM in the Eurofins-Panlabs radioligand binding assay (Eurofins_assay_244500); settings: Compound concentration 10.0 uM
Bos taurus = species: Bos taurus; test: Protein Serine/Threonine Kinase, PKA, Non-Selective Eurofins-Panlabs enzyme assay; format: protein-complex assay; set-up: substrate with concentration 370 µg/mL Histone Type III-S, incubation time 15 min, incubation temperature 25 °C; settings: Compound concentration 100.0 uM
[4] = molecular target: Histamine H4 receptor (Homo sapiens) (UniProt Q9H3N8); test: Histamine H4 Eurofins-Panlabs radioligand binding assay; settings: Compound concentration 10.0 uM
[5] = molecular target: Peroxisome proliferator-activated receptor alpha (Homo sapiens) (UniProt Q07869); test: PPARalpha Eurofins-Panlabs radioligand binding assay; settings: Compound concentration 10.0 uM
[6] = molecular target: High affinity choline transporter 1 (Homo sapiens) (UniProt Q9GZV3); test: Transporter, Choline Eurofins-Panlabs radioligand binding assay; set-up: ligand concentration 0.75 nM; settings: Rattus norvegicus; Compound concentration 10.0 uM
[7] = molecular target: T1, Tyrosine-protein phosphatase non-receptor type 2 (Homo sapiens) (UniProt P17706); test: (§1) Protein Tyrosine Phosphatase, PTPN2 (TCPTP) Eurofins-Panlabs enzyme assay; set-up: substrate with concentration DiFMUP, incubation time 60 min, incubation temperature 37 °C
T1 sequence (whole entry): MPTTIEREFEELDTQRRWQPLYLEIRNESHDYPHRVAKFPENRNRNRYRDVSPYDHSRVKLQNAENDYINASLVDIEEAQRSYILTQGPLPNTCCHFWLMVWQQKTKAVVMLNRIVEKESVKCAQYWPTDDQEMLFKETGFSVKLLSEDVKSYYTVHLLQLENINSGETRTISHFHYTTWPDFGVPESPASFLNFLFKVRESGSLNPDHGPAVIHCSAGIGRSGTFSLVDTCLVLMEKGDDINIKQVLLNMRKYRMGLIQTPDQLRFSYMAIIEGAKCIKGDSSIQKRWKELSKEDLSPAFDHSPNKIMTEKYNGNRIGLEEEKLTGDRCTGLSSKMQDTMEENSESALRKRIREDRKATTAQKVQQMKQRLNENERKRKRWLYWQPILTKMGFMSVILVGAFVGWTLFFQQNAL

[8] = molecular target: Tyrosine-protein phosphatase non-receptor type 2 (Homo sapiens, UniProt P17706); test: as §1; set-up: substrate with concentration DiFMUP, incubation time 60 min, incubation temperature 37 °C
Rattus norvegicus = species: Rattus norvegicus; test: Adrenergic α1, Non-selective Eurofins-Panlabs radioligand binding assay; format: protein assay; settings: Compound concentration 10.0 uM
[9] = molecular target: Sodium-dependent serotonin transporter (Homo sapiens) (UniProt P31645); test: Transporter, Serotonin (5- Hydroxytryptamine) (SERT) Eurofins-Panlabs radioligand binding assay; set-up: ligand concentration 0.15 nM, non-specific ligand with concentration 10 µM Imipramine, incubation time 3 h, incubation temperature 4 °C; settings: Compound concentration 10.0 uM
[10] = molecular target: Vasopressin V1a receptor (Homo sapiens) (UniProt P37288); test: Vasopressin V1A Eurofins-Panlabs radioligand binding assay; set-up: ligand concentration 0.01 nM; settings: Compound concentration 10.0 uM
[11] = molecular target: Estrogen receptor (Homo sapiens) (UniProt P03372); settings: Compound concentration 10.0 uM
[12] = molecular target: Glutamate NMDA receptor (Rattus norvegicus) (UniProt P35439+Q00959+Q00960+Q00961+Q62645+Q8VHN2+Q9R1M7); settings: Compound concentration 10.0 uM
[13] = molecular target: T2, Alpha-2B adrenergic receptor (Homo sapiens) (UniProt P18089); settings: Compound concentration 10.0 uM
T2 sequence (whole entry): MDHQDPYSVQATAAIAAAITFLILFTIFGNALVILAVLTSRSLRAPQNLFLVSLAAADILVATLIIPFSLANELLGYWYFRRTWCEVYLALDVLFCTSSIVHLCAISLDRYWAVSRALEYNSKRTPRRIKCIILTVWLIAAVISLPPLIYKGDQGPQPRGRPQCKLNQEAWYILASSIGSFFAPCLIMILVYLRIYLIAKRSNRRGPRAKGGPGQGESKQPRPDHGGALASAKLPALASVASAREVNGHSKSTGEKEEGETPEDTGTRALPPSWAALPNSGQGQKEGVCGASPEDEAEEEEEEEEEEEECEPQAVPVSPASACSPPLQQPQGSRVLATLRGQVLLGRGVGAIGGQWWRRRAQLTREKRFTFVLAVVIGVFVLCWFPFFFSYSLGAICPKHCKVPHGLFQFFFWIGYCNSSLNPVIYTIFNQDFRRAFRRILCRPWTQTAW

[14] = molecular target: Beta-3 adrenergic receptor (Homo sapiens) (UniProt P13945); settings: Compound concentration 10.0 uM
[15] = molecular target: D(2) dopamine receptor (Homo sapiens) (UniProt P14416); settings: Compound concentration 10.0 uM
Chain of D(2) dopamine receptor (Homo sapiens) (P14416 whole entry): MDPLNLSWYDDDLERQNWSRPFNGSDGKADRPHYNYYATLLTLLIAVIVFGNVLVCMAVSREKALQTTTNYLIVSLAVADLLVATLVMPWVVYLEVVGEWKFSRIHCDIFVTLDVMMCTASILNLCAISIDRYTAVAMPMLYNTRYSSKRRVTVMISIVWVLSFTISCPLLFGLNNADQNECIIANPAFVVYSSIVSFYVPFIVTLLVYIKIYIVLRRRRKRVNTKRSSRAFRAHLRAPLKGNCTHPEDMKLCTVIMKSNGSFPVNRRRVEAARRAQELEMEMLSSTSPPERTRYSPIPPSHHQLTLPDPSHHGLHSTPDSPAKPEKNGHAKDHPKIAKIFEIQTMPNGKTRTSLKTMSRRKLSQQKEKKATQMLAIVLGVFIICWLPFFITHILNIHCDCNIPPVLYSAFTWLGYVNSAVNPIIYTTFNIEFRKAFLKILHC

Chain of 5-hydroxytryptamine receptor 7 (P34969 whole entry): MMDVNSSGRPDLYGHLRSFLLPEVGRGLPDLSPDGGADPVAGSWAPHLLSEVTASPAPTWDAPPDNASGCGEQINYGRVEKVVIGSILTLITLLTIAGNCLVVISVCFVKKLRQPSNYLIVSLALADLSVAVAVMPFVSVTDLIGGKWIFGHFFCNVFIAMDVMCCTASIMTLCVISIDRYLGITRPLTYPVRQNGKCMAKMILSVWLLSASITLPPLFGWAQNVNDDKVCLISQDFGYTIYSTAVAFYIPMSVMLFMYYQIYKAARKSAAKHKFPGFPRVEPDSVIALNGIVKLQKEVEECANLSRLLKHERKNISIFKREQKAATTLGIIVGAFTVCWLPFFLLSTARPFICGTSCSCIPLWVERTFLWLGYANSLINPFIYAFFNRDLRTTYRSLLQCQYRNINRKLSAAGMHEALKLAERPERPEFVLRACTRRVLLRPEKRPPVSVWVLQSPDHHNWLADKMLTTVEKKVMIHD
Chain of C-X-C chemokine receptor type 2 (Homo sapiens) (P25025 whole entry): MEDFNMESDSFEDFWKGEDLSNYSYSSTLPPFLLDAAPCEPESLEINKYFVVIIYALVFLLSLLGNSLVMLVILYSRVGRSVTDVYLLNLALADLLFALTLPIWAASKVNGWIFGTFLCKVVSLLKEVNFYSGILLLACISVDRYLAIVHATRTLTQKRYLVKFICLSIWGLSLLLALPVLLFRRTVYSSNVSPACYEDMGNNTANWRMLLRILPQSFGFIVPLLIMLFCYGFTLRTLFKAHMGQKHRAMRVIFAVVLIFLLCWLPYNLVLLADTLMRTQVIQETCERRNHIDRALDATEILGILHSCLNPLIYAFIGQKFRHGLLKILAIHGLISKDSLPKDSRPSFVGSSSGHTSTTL
Chain of Beta-3 adrenergic receptor (Homo sapiens) (P13945 whole entry, looked up): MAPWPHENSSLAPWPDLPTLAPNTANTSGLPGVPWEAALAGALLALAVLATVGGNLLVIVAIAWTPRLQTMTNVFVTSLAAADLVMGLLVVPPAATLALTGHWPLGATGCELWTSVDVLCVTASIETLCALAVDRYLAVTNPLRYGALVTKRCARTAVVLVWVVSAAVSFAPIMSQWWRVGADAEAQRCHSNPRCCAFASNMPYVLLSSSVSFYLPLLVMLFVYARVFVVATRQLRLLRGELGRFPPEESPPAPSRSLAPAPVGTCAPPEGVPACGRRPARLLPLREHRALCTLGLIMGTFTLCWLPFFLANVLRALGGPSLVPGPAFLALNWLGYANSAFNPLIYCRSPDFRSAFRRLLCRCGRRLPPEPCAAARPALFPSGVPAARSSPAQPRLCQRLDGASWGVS
Chain of Histamine H4 receptor (Homo sapiens) (Q9H3N8 whole entry): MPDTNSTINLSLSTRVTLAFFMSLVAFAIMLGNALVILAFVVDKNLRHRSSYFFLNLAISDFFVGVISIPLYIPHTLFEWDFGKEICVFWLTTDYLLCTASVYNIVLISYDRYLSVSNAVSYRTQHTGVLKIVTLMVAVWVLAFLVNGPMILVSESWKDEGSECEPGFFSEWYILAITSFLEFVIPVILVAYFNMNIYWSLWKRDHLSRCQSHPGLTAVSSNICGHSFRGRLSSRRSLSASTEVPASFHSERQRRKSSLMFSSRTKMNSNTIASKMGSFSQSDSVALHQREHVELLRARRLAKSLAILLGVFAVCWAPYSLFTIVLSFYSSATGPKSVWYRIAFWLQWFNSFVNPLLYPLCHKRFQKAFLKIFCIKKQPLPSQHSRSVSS
Chain of ATP-sensitive inward rectifier potassium channel 11 (Cricetulus griseus) (A0A3L7HHE1 as listed by the source): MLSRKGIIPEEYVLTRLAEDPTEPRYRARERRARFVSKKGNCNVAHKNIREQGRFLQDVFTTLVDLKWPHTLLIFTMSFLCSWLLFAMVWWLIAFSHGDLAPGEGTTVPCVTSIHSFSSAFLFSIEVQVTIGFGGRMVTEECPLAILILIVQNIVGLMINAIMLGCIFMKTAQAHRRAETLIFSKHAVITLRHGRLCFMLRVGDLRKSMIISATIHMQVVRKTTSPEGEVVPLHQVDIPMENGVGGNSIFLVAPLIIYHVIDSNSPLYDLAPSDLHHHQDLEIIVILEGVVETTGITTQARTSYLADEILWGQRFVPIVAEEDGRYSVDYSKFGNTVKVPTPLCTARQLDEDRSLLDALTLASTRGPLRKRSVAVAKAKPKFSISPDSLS
Chain of Peroxisome proliferator-activated receptor alpha (Homo sapiens) (Q07869 whole entry): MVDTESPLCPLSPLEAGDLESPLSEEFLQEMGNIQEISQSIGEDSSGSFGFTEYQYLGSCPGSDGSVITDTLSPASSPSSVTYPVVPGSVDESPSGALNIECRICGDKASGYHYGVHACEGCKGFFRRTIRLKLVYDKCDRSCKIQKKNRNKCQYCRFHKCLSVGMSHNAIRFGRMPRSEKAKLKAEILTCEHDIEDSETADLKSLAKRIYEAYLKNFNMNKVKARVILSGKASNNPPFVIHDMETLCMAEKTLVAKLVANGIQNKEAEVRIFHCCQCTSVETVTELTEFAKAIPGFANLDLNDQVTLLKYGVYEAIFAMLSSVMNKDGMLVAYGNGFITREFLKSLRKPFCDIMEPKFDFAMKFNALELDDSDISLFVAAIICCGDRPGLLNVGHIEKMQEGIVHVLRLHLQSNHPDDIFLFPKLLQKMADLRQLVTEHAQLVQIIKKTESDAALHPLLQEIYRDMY
Chain of Estrogen receptor (Homo sapiens) (P03372 whole entry): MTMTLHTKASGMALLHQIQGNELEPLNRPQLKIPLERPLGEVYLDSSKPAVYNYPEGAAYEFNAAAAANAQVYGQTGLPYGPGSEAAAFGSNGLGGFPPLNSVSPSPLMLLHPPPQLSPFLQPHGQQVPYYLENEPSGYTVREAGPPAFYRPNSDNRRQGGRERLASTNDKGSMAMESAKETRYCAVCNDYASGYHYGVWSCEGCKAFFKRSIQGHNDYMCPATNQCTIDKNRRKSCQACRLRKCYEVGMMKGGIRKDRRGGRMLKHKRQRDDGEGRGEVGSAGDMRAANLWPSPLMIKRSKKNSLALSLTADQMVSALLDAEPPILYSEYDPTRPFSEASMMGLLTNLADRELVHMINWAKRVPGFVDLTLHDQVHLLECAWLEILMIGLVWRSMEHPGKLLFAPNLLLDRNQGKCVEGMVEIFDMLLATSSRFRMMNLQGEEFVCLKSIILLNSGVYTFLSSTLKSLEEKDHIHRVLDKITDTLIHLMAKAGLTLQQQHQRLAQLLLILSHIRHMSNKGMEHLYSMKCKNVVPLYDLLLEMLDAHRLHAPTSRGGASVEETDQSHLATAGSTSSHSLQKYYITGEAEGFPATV
Chain of Vasopressin V1a receptor (Homo sapiens) (P37288 whole entry, looked up): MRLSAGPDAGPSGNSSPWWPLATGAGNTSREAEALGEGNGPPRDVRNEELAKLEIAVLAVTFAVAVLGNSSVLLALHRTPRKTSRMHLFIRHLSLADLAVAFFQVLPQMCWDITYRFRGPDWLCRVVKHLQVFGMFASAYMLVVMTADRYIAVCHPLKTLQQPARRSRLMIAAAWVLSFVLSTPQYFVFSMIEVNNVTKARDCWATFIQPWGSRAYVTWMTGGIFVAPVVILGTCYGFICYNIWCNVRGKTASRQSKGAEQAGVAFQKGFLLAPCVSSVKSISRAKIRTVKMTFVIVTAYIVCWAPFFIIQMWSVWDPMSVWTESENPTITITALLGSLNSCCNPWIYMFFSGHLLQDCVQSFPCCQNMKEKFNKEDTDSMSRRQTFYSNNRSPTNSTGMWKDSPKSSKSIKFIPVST
Chain of Sodium-dependent serotonin transporter (Homo sapiens) (P31645 whole entry, looked up): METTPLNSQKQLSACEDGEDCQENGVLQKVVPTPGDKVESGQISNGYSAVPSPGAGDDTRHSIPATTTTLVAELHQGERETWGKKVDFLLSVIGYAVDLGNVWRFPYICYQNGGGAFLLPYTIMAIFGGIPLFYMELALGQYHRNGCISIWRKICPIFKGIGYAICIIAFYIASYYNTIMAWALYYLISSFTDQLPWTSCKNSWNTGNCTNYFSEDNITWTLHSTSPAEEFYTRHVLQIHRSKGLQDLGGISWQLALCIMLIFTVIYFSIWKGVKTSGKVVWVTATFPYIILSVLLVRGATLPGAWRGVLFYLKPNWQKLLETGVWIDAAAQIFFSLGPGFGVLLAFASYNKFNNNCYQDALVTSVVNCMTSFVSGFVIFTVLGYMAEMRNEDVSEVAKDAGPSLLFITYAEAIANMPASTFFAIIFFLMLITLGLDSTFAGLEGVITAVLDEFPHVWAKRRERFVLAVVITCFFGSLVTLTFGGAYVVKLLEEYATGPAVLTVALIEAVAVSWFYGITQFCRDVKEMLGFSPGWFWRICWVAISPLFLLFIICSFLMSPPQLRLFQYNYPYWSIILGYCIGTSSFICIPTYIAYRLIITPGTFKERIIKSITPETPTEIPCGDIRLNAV

N#CC1(c2ccccn2)CCN(Cc2cc(C(=O)O)c(=O)n3ccccc23)CC1 [MSD-M1PAM]
Ki [1]: 10 µM
inhibition [2]: 1%
inhibition (Homo sapiens): 8%
inhibition [3]: 0%
inhibition (Bos taurus): 24%
inhibition [4]: 11%
inhibition [5]: 11%
inhibition [6]: 29%
inhibition ([7]; Compound concentration 0.01 uM): -4%
inhibition ([7]; Compound concentration 0.1 uM): -5%
inhibition ([7]; Compound concentration 1.0 uM): 4%
inhibition ([7]; Compound concentration 10.0 uM): 50%
IC50 [8]: 10 µM
inhibition (Rattus norvegicus): -4%
inhibition [9]: 9%
inhibition [10]: -5%
inhibition [11]: -1%
inhibition [12]: 25%
inhibition [13]: -8%
inhibition [14]: -5%

N#CC1(c2ccccn2)CCN(Cc2cc(C(=O)N3CCCC3)c(=O)n3ccccc23)CC1
inhibition [15]: -5.66%
